# Species: Rattus norvegicus
# Assay: Open TG-GATES - Regimen: Daily Repeat
# Assay type: toxicity, organism-based, Sprague-Dawley
# Parameters: regimen Daily Repeat, gender Male, age 6 weeks
# Settings: in vivo, po, route gavage; for APTT / Bas / Eos / Fbg / Hb / Ht / Lym / MCH / MCHC / MCV / Mono / PT / Plat / RBC / Ret / WBC: tissue Blood; for KIDNEY_L / KIDNEY_R / KIDNEY_TOTAL: tissue Kidney; for ALP / ALT / AST / BUN / CRE / Ca / DBIL / GLC / IP / K / LDH / Na / PL / RALB / TBIL / TC / TG / TP / gamma-GTP: tissue Plasma
# [1] = 0 mg/kg, 72 h, dose level Control, time 3 day
# [2] = 0 mg/kg, […], dose level Control, time 7 day
# [3] = 0 mg/kg, […], dose level Control, time 14 day
# [4] = 0 mg/kg, […], dose level Control, time 28 day
# [5] = 20 mg/kg, 72 h, dose level Low, time 3 day
# [6] = 20 mg/kg, […], dose level Low, time 7 day
# [7] = 20 mg/kg, […], dose level Low, time 14 day
# [8] = 20 mg/kg, […], dose level Low, time 28 day
# [9] = 60 mg/kg, 72 h, dose level Middle, time 3 day
structure (smiles),measurement,setting,value
CC(C)Cc1ccc(C(C)C(=O)O)cc1 (centres undefined) [IBUPROFEN],TERMINAL_BW,[1],222.9 g
same,APTT,[1],20.4 s
same,Bas,[1],0%
same,Eos,[1],1%
same,Fbg,[1],283.4 mg/dL
same,Hb,[1],13.2 g/dL
same,Ht,[1],38.4%
same,Lym,[1],79.8%
same,MCH,[1],22.3 pg
same,MCHC,[1],34.5%
same,MCV,[1],64.7 fL
same,Mono,[1],2.8%
same,PT,[1],15.5 s
same,Plat,[1],111.7 x10_4/uL
same,RBC,[1],593 x10_4/ul
same,Ret,[1],6.7%
same,WBC,[1],110.2 x10_2/uL
same,KIDNEY_L,[1],0.9 g
same,KIDNEY_R,[1],1 g
same,KIDNEY_TOTAL,[1],1.9 g
same,ALP,[1],1697.6 IU/L
same,ALT,[1],44.8 IU/L
same,AST,[1],76.6 IU/L
same,BUN,[1],17.2 mg/dL
same,CRE,[1],0.2 mg/dL
same,Ca,[1],11 mg/dL
same,DBIL,[1],0 mg/dL
same,GLC,[1],200 mg/dL
same,IP,[1],7.7 mg/dL
same,K,[1],4.1 meq/L
same,LDH,[1],208 IU/L
same,Na,[1],141.4 meq/L
same,PL,[1],143.6 mg/dL
same,RALB,[1],3 g/dL
same,TBIL,[1],0.006 mg/dL
same,TC,[1],77 mg/dL
same,TG,[1],84 mg/dL
same,TP,[1],5.5 g/dL
same,gamma-GTP,[1],1.2 IU/L
same,TERMINAL_BW,[2],270 g
same,TERMINAL_BW,[3],304.6 g
same,TERMINAL_BW,[4],398.5 g
same,APTT,[2],21.5 s
same,Bas,[2],0%
same,Eos,[2],0.8%
same,Fbg,[2],292.8 mg/dL
same,Hb,[2],13.1 g/dL
same,Ht,[2],37.3%
same,Lym,[2],80%
same,MCH,[2],21.6 pg
same,MCHC,[2],35%
same,MCV,[2],61.7 fL
same,Mono,[2],2.4%
same,PT,[2],16.1 s
same,Plat,[2],123.8 x10_4/uL
same,RBC,[2],604.6 x10_4/ul
same,Ret,[2],6.7%
same,WBC,[2],126 x10_2/uL
same,Bas,[3],0%
same,Eos,[3],0.6%
same,Fbg,[3],355.2 mg/dL
same,Ht,[3],41.1%
same,Lym,[3],83.8%
same,MCHC,[3],34.7%
same,MCV,[3],59.9 fL
same,Mono,[3],2%
same,PT,[3],16 s
same,Plat,[3],115.8 x10_4/uL
same,RBC,[3],686.2 x10_4/ul
same,Ret,[3],4.9%
same,WBC,[3],104.5 x10_2/uL
same,APTT,[4],21.9 s
same,Bas,[4],0%
same,Eos,[4],1.2%
same,Fbg,[4],340.2 mg/dL
same,Hb,[4],14.8 g/dL
same,Ht,[4],43%
same,Lym,[4],84.4%
same,MCH,[4],19.2 pg
same,MCHC,[4],34.4%
same,MCV,[4],55.9 fL
same,Mono,[4],2.2%
same,PT,[4],16.9 s
same,RBC,[4],768.2 x10_4/ul
same,Ret,[4],2.7%
same,KIDNEY_L,[2],1.1 g
same,KIDNEY_R,[2],1.2 g
same,KIDNEY_TOTAL,[2],2.3 g
same,KIDNEY_L,[3],1.2 g
same,KIDNEY_R,[3],1.2 g
same,KIDNEY_TOTAL,[3],2.4 g
same,KIDNEY_L,[4],1.3 g
same,KIDNEY_R,[4],1.4 g
same,KIDNEY_TOTAL,[4],2.7 g
same,ALP,[2],1943 IU/L
same,ALT,[2],46.8 IU/L
same,AST,[2],76.6 IU/L
same,BUN,[2],18.6 mg/dL
same,CRE,[2],0.2 mg/dL
same,DBIL,[2],0 mg/dL
same,GLC,[2],179.2 mg/dL
same,IP,[2],7.6 mg/dL
same,K,[2],4.2 meq/L
same,LDH,[2],170.2 IU/L
same,Na,[2],138.6 meq/L
same,PL,[2],136.2 mg/dL
same,RALB,[2],3.1 g/dL
same,TBIL,[2],0.004 mg/dL
same,TC,[2],71.2 mg/dL
same,TG,[2],100.8 mg/dL
same,TP,[2],5.5 g/dL
same,gamma-GTP,[2],2.6 IU/L
same,ALP,[3],1425.2 IU/L
same,ALT,[3],37.4 IU/L
same,AST,[3],65.8 IU/L
same,BUN,[3],19.2 mg/dL
same,CRE,[3],0.2 mg/dL
same,DBIL,[3],0 mg/dL
same,GLC,[3],200.4 mg/dL
same,IP,[3],7.7 mg/dL
same,K,[3],4.1 meq/L
same,LDH,[3],118.4 IU/L
same,Na,[3],140.6 meq/L
same,PL,[3],149 mg/dL
same,RALB,[3],3 g/dL
same,TBIL,[3],0.012 mg/dL
same,TC,[3],73.4 mg/dL
same,TP,[3],5.8 g/dL
same,gamma-GTP,[3],2.2 IU/L
same,ALP,[4],1191 IU/L
same,ALT,[4],35.2 IU/L
same,AST,[4],66.2 IU/L
same,CRE,[4],0.2 mg/dL
same,DBIL,[4],0 mg/dL
same,GLC,[4],196 mg/dL
same,IP,[4],6.3 mg/dL
same,K,[4],4.1 meq/L
same,LDH,[4],170.6 IU/L
same,Na,[4],140.8 meq/L
same,PL,[4],144.6 mg/dL
same,RALB,[4],3.2 g/dL
same,TBIL,[4],0.002 mg/dL
same,TC,[4],66.6 mg/dL
same,TG,[4],143.8 mg/dL
same,TP,[4],6.1 g/dL
same,gamma-GTP,[4],3 IU/L
same,TERMINAL_BW,[5],230.1 g
same,APTT,[5],21.4 s
same,Bas,[5],0%
same,Eos,[5],0.6%
same,Fbg,[5],301 mg/dL
same,Hb,[5],13.6 g/dL
same,Ht,[5],39.5%
same,Lym,[5],75.8%
same,MCH,[5],22 pg
same,MCHC,[5],34.3%
same,MCV,[5],64 fL
same,Mono,[5],3%
same,PT,[5],15.5 s
same,Plat,[5],120.5 x10_4/uL
same,RBC,[5],617.6 x10_4/ul
same,Ret,[5],6.7%
same,WBC,[5],117.5 x10_2/uL
same,KIDNEY_L,[5],1 g
same,KIDNEY_R,[5],1 g
same,KIDNEY_TOTAL,[5],2 g
same,ALP,[5],1847.8 IU/L
same,ALT,[5],42.8 IU/L
same,AST,[5],75 IU/L
same,BUN,[5],17.8 mg/dL
same,CRE,[5],0.2 mg/dL
same,Ca,[5],11 mg/dL
same,DBIL,[5],0 mg/dL
same,GLC,[5],182.8 mg/dL
same,IP,[5],7.4 mg/dL
same,K,[5],4.4 meq/L
same,LDH,[5],222 IU/L
same,Na,[5],141.4 meq/L
same,PL,[5],152.6 mg/dL
same,RALB,[5],3.1 g/dL
same,TBIL,[5],0.004 mg/dL
same,TC,[5],81.4 mg/dL
same,TG,[5],113.6 mg/dL
same,TP,[5],5.6 g/dL
same,gamma-GTP,[5],1.2 IU/L
same,TERMINAL_BW,[6],245.9 g
same,TERMINAL_BW,[7],307.6 g
same,TERMINAL_BW,[8],358.8 g
same,Bas,[6],0%
same,Eos,[6],1%
same,Fbg,[6],311 mg/dL
same,Hb,[6],13.6 g/dL
same,Ht,[6],39.4%
same,Lym,[6],75.6%
same,MCH,[6],21.4 pg
same,MCHC,[6],34.6%
same,MCV,[6],61.9 fL
same,Mono,[6],2.8%
same,PT,[6],15.9 s
same,Plat,[6],121 x10_4/uL
same,RBC,[6],638 x10_4/ul
same,Ret,[6],5.8%
same,APTT,[7],24 s
same,Bas,[7],0%
same,Eos,[7],0.8%
same,Fbg,[7],339.6 mg/dL
same,Ht,[7],41%
same,Lym,[7],80.4%
same,MCHC,[7],34.6%
same,MCV,[7],60.2 fL
same,Mono,[7],2.2%
same,PT,[7],15.8 s
same,Plat,[7],116.9 x10_4/uL
same,RBC,[7],682.4 x10_4/ul
same,Ret,[7],4.7%
same,WBC,[7],120.7 x10_2/uL
same,Bas,[8],0%
same,Eos,[8],1.2%
same,Fbg,[8],317.5 mg/dL
same,Hb,[8],14.8 g/dL
same,Ht,[8],43%
same,Lym,[8],78.5%
same,MCH,[8],19.2 pg
same,MCHC,[8],34.5%
same,MCV,[8],55.8 fL
same,Mono,[8],2.5%
same,Plat,[8],98.8 x10_4/uL
same,RBC,[8],771 x10_4/ul
same,Ret,[8],2.8%
same,WBC,[8],94.9 x10_2/uL
same,KIDNEY_L,[6],1.1 g
same,KIDNEY_R,[6],1.1 g
same,KIDNEY_TOTAL,[6],2.1 g
same,KIDNEY_L,[7],1.2 g
same,KIDNEY_R,[7],1.2 g
same,KIDNEY_TOTAL,[7],2.4 g
same,KIDNEY_L,[8],1.3 g
same,KIDNEY_R,[8],1.3 g
same,KIDNEY_TOTAL,[8],2.5 g
same,ALP,[6],1657.2 IU/L
same,ALT,[6],43.6 IU/L
same,AST,[6],73 IU/L
same,BUN,[6],18 mg/dL
same,CRE,[6],0.2 mg/dL
same,DBIL,[6],0 mg/dL
same,GLC,[6],183.4 mg/dL
same,IP,[6],6.8 mg/dL
same,K,[6],4.1 meq/L
same,LDH,[6],167.2 IU/L
same,Na,[6],139.8 meq/L
same,PL,[6],150.8 mg/dL
same,RALB,[6],3 g/dL
same,TBIL,[6],0.004 mg/dL
same,TC,[6],71.6 mg/dL
same,TG,[6],128.2 mg/dL
same,TP,[6],5.6 g/dL
same,gamma-GTP,[6],2.2 IU/L
same,ALP,[7],1385.4 IU/L
same,ALT,[7],45 IU/L
same,AST,[7],73.4 IU/L
same,CRE,[7],0.2 mg/dL
same,DBIL,[7],0 mg/dL
same,GLC,[7],197.2 mg/dL
same,IP,[7],7.2 mg/dL
same,K,[7],3.9 meq/L
same,LDH,[7],129.4 IU/L
same,Na,[7],141.8 meq/L
same,PL,[7],150 mg/dL
same,RALB,[7],3.1 g/dL
same,TBIL,[7],0.006 mg/dL
same,TC,[7],75.4 mg/dL
same,TG,[7],122.6 mg/dL
same,TP,[7],5.7 g/dL
same,gamma-GTP,[7],2.4 IU/L
same,ALP,[8],1303 IU/L
same,ALT,[8],38.8 IU/L
same,AST,[8],67.5 IU/L
same,CRE,[8],0.2 mg/dL
same,DBIL,[8],0 mg/dL
same,GLC,[8],196 mg/dL
same,IP,[8],5.6 mg/dL
same,K,[8],3.7 meq/L
same,LDH,[8],181.8 IU/L
same,Na,[8],142.5 meq/L
same,PL,[8],149.8 mg/dL
same,RALB,[8],3.3 g/dL
same,TBIL,[8],0.005 mg/dL
same,TC,[8],72.5 mg/dL
same,TG,[8],129.5 mg/dL
same,TP,[8],6.1 g/dL
same,gamma-GTP,[8],2.8 IU/L
same,TERMINAL_BW,[9],227 g
same,APTT,[9],20.5 s
same,Bas,[9],0%

# From ChEMBL document CHEMBL3885861, “Open TG-GATES”
